The values below come from patent publication EP0241232A1, “Isoxazolylethanol derivatives” (SHIONOGI SEIYAKU KABUSHIKI KAISHA, priority 1986, dated 1987).

Test [1] deals with Erysiphe graminis f. sp. tritici. Nature of the test: Control by seed-soaking: powdery mildew in wheat. Format: in vivo. On the procedure:
(§1) The test compound was dissolved in 0.2 ml of acetone and suspended in demineralized distilled water containing a small amount of spreader, to a concentration of 500 ppm. The suspension was further diluted to one quarter dilution with demineralized distilled water (containing a small amount of spreader) to give a suspension in 125 ppm. All seeds of oats, wheat and cucumber were soaked in these suspensions at room temperature for an hour and then the seeds were air-dried.
(§2) The seeds as described above were sown in plastic pots (diameter : 9 cm). For rust and powdery mildews, the pots were kept in a glasshouse for 1 - 3 weeks until the seeds grew to young plants. The young oats (10 - 20 plants per pot) were inoculated by dusting with spores of Puccinia coronata, and the wheat (10 - 20 plants per pot) was also inoculated by spraying with spores of Erysiphe graminis f. sp. tritici, and the cucumber (1 plant per pot) was also inoculated by spraying with spore suspension of Sphaerotheca fuliginea. These inoculated plants were further kept in a glasshouse for 10 - 14 days until assessment. For damping-off, the treated seeds were sown in paper pots (diameter : 7.5 cm; depth : 6 cm) which contained soil infested with Rhizoctonia solani by mixing sterilized soil and pre-cultured fungus. Then the pots were kept in a humid glasshouse at 25 - 32 ^*C.
(§3) Damping-off was observed 15 days after sowing, and disease degree and control effect were obtained from the following equations. [formula] [formula] where diseased seedlings included damping-off and unemerged'seeds due to infection. For the foliar diseases, disease development was observed 10 - 14 days after inoculation of spores, and control effect was obtained by the following index.

For test [2], the system named is Candida albicans KE-2. Nature of the test: Inhibition test against pseudomycelium formation of Candida albicans. Format: cell-based. To be noted: KE2, minimum effective concentration preventing typical pseudomycelium formation, Eagle-MEM + 20 % calf serum, 18 hours at 37 °C, read-out: Inhibitory Concentration of Pseudo-myselium Formation. On the procedure: Candida albicans KE-2 was inoculated to Eagle-MEM medium (Nissan 2 made by Nissui Seiyaku, Ltd.) supplemented with 20 % calf serum so that its final inoculum of yeast cell might be 1 x 10^6 yeast cells per milliliter. The test compounds were added thereon in two fold dilution series. After incubation for 18 hours at 37 °C, the fungal growth in each drug concentration was smeared and fixed on a slide glass, and the presence or absence of the pseudomycelium formation was examined by a microscope following Giemsa staining. Minimum effective concentration was defined as the lowest concentration of the compound which prevented typical pseudomycelium formation.

Test [3] concerns Candida albicans KE-2. In words: Therapeutic effect against experimental candidiasis in mice. The conditions noted are these: KE2, po, 120 h, mouse survival ratio on the 5th day after infection, Jcl-ICR female mouse, 50 mg/kg orally three times (0, 4, 24 hours). Format: in vivo. On the procedure:
After Candida albicans KE-2 was incubated on Sabouraud's glucose agar at 28 °C for 48 hr., it was suspended in Sabouraud's glucose broth and the cells ([…]) were injected to a tail vein of Jcl-ICR female mouse (4 weeks age; weight : 18 - 20 g). A suspension of the test compound in 2 % gum arabic was orally administered three times, immediately after infection of the yeast ( 0 hour), after 4 hours and after 24 hours, as a dosage of 50 mg/kg. Non-treated group was used as control. Each eight mice per group was used in control group and treated group. All the mice in control group died within 48 hr. after infection. Therapeutic effect of the test compound was judged by mouse survival ratio on the 5th day after infection.

Test [4] relates to Sphaerotheca fuliginea. In words: Control of cucumber powdery mildew by foliar spray. Format: in vivo. The conditions noted are these: observed 10 days after inoculation; for Control Index Preventive Effect: inoculation 24 hr. after application; for Control Index Curative Effect: inoculation 24 hr. before application. On the procedure: The test compound was dissolved in a small amount of acetone and suspended in demineralized distilled water containing a spreader, to a concentration of 7.8 ppm and 2.0 ppm. Young cucumber plants (c.v. Tsukuba-Shiroibo) of 2-leaf stage grown in pots were sprayed sufficiently with the suspension.
Spores of Sphaerotheca fuliginea cultured in cucumber plants were collected and suspended in distilled water. Inoculation was made by spraying with the spore suspension to the test plant of 24 hr. after application of the test compound (preventive control) or 24 hr. before application (curative control).
Development of the disease was observed 10 days after inoculation and control index was obtained as described in Experiment 3.

Test [5] deals with Rhizoctonia solani. In words: Control of cucumber damping-off by soil drench. Type of test: in vivo. To be noted: 30 ml per cup, judged 15 days after inoculation. On the procedure: as §3
The test compound was dissolved in a small amount of acetone and suspended in demineralized distilled water containing a spreader, to a concentration of 125 ppm and 31 ppm. The soil sterilized by an autoclave was put into paper cups (diameter : 7.5 cm; depth : 6 cm) and cucumber seeds (c.v. : Matsukaze) were sown in the cups (10 seeds/pot). Then the soil surface was covered with the following soil containing pathogen. And then 30 ml of the formation of the test compound was applied to the soil in the cup.
Rhizoctonia solani incubated in a bran medium at 28 °C for 5 days was put into sterile soil and cultured for 24 hr. The inoculated soil was diluted with sterile soil to about 4 times volume. The soil surface in the cups containing cucumber seeds was covered with the soil containing Rhizoctonia solani.
Control effect was judged 15 days after inoculation and control percent was obtained as described in Experiment 3.

Another test deals with Puccinia coronata. In words: Control by seed-soaking: crown rust in oats. Type of test: in vivo. On the procedure:
as §1, §2, §3

For test [6], the system named is Sphaerotheca fuliginea. Nature of the test: Control by seed-soaking: powdery mildew in cucumber. Format: in vivo. On the procedure:
as §1, §2, §3

The test system of test [7] is Rhizoctonia solani. Nature of the test: Control by seed-soaking: Rhizoctonia damping-off in cucumber. The conditions noted are these: 360 h, seed-soaking, observed 15 days after sowing, control effect by equation, read-out: Control Index Rhizoctonia Damping-Off in Cucumber. Type of test: in vivo. On the procedure:
as §1, §2, §3

Take `OC(Cn1cncn1)(c1ccon1)c1ccc(F)cc1F` (stereo not drawn) [Ia - 4]: the “Control Index Powdery Mildew in Wheat” value is 50 (Leaves covered with symptom between 46 % and 65 % area) in test [1] (125 ppm); 100 in test [1] (500 ppm). Moreover, in the test on Candida albicans KE-2 [2], the minimal effective concentration came out at 0.16 µg/mL. In addition, the responders at 50 mg/kg in the test on Candida albicans KE-2 [3] was found to be 100%. The entries for the “Control Index Preventive Effect” value in the test with Sphaerotheca fuliginea [4] (foliar spray 2.0 ppm) and with Sphaerotheca fuliginea [4] (foliar spray 7.8 ppm) were 97 (Leaves covered with symptom less than 3 % area) and 100, respectively. Also, the “Control Index Curative Effect” value in the test on Sphaerotheca fuliginea [4] (foliar spray 2.0 ppm) and in the test with Sphaerotheca fuliginea [4] (foliar spray 7.8 ppm) was 100 each time. In addition, the Control in the test with Rhizoctonia solani [5] (soil drench 31 ppm) and in the test with Rhizoctonia solani [5] (soil drench 125 ppm) was 100% in each case. Besides, the “Control Index Crown Rust in Oats” value in the test on Puccinia coronata (125 ppm) is 50 (Leaves covered with symptom between 46 % and 65 % area); in the test on Puccinia coronata (500 ppm) it was 97 (Leaves covered with symptom less than 3 % area). The “Control Index Powdery Mildew in Cucumber” value with Sphaerotheca fuliginea [6] (125 ppm) was 50 (Leaves covered with symptom between 46 % and 65 % area); in the test with Sphaerotheca fuliginea [6] (500 ppm), 70 (Leaves covered with symptom between 16 % and 45 % area). In addition, in the test with Rhizoctonia solani [7], the pest or weed control at 125 ppm stood at 53%. Besides, the pest or weed control at 500 ppm with Rhizoctonia solani [7] was 86%.

As to `OC(Cn1cncn1)(c1ccc(Cl)cc1)c1ccon1` (stereo not drawn) [Ia - 2], the “Control Index Powdery Mildew in Wheat” value in test [1] (125 ppm) and in test [1] (500 ppm) was 100 in each case. Besides, in the test on Candida albicans KE-2 [2], the minimal effective concentration was 0.04 µg/mL. Besides, the responders at 50 mg/kg in the test on Candida albicans KE-2 [3] came out at 100%. For the same compound, the figures for the “Control Index Preventive Effect” value in the test on Sphaerotheca fuliginea [4] (foliar spray 2.0 ppm) and with Sphaerotheca fuliginea [4] (foliar spray 7.8 ppm) were 97 (Leaves covered with symptom less than 3 % area) and 100, respectively. Further, the “Control Index Curative Effect” value in the test with Sphaerotheca fuliginea [4] (foliar spray 2.0 ppm) and in the test with Sphaerotheca fuliginea [4] (foliar spray 7.8 ppm) was 100 in each case. Also, the Control with Rhizoctonia solani [5] (soil drench 31 ppm) and with Rhizoctonia solani [5] (soil drench 125 ppm) was 100% each time. Besides, the “Control Index Crown Rust in Oats” value in the test on Puccinia coronata (125 ppm) was 70 (Leaves covered with symptom between 16 % and 45 % area); in the test with Puccinia coronata (500 ppm), 100. Besides, the “Control Index Powdery Mildew in Cucumber” value in the test with Sphaerotheca fuliginea [6] (125 ppm) is 70 (Leaves covered with symptom between 16 % and 45 % area); in the test with Sphaerotheca fuliginea [6] (500 ppm), 90 (Leaves covered with symptom between 4 % and 15 % area). Besides, in the test on Rhizoctonia solani [7], the pest or weed control at 125 ppm was found to be 93%. In addition, the pest or weed control at 500 ppm in the test with Rhizoctonia solani [7] is 100%.

As to `OC(Cn1cncn1)(c1ccon1)c1ccc(Cl)cc1Cl` (stereo not drawn) [Ia - 3], the “Control Index Powdery Mildew in Wheat” value is 70 (Leaves covered with symptom between 16 % and 45 % area) in test [1] (125 ppm); 100 in test [1] (500 ppm). In addition, the minimal effective concentration in the test with Candida albicans KE-2 [2] came out at 0.02 µg/mL. In addition, the responders at 50 mg/kg in the test with Candida albicans KE-2 [3] is 100%. Also, the “Control Index Preventive Effect” value with Sphaerotheca fuliginea [4] (foliar spray 2.0 ppm) and with Sphaerotheca fuliginea [4] (foliar spray 7.8 ppm) was 100 each time. Besides, the “Control Index Curative Effect” value with Sphaerotheca fuliginea [4] (foliar spray 2.0 ppm) and with Sphaerotheca fuliginea [4] (foliar spray 7.8 ppm) was 100 each time. For the same compound, the Control in the test with Rhizoctonia solani [5] (soil drench 31 ppm) and in the test with Rhizoctonia solani [5] (soil drench 125 ppm) was 100% throughout. Further, the entries for the “Control Index Crown Rust in Oats” value with Puccinia coronata (125 ppm) and in the test with Puccinia coronata (500 ppm) were 97 (Leaves covered with symptom less than 3 % area) and 100, respectively. For the same compound, the “Control Index Powdery Mildew in Cucumber” value in the test on Sphaerotheca fuliginea [6] (125 ppm) was 50 (Leaves covered with symptom between 46 % and 65 % area); in the test with Sphaerotheca fuliginea [6] (500 ppm) it was 70 (Leaves covered with symptom between 16 % and 45 % area). For the same compound, the pest or weed control at 125 ppm in the test with Rhizoctonia solani [7] came out at 100%. The pest or weed control at 500 ppm in the test with Rhizoctonia solani [7] was 94%.
